Data published in patent publication US8193175B2, “Ruthenium complexes for treating cancers” (Universite de Strasbourg, priority 2004, dated 2012).

Legend:
[1] = test system: HL-60; assay: Proliferation test (UptiBlue) on HL-60; assay type: cell-based, human
Procedure: (§1) The products are tested on different cell lines. The cells used are RDM4 from a murine T lymphoma and a MOLT-4 line originating from an acute lymphoblastic leukemia. These cancer lines both express the p53 protein, unlike the HL-60 cells from a human promyelocytary leukemia where, following deletion of its gene, p53 is absent.
(§2) All of these cells are cultivated in RPMI 1640-Glutamax, supplemented by 10% calf foetal serum heat inactivated at 56° C. for 30 minutes, 1 mM sodium pyruvate, 1 mM non-essential amino acids and 50 μg/mL gentamycine (Life Technologies, Cergy Pontoise, France). The cultures are kept in an incubator at 37° C. with a moisture saturated atmosphere, with 5% CO2.
(§3) This test uses the UptiBlue reagent (Interchim, Montluçon, France), metabolised by the living cells. The cells are incubated on plates with 96 wells with 10^4 cells/well (200 μL) with the product and cultivated for 72 hours. Then, 20 μL UptiBlue are added to each well. After 3 hours incubation, the fluorescence of the samples contained in the plates is measured at 590 nm (excitation at 560 nm), using a Fluorolite 1000 microplate reader (Dynex technologies, Issy-Les-Moulineaux, France).
This sensitivity is reversed with the Ru complex. […] These latter, which have a normal p53 gene, are less sensitive to the Ru complex. […]

[2] = test system: TK6 and NH32 lines; assay: Compared proliferation of lines TK6 and NH32; assay type: cell-based, human
Procedure: The influence of the p53 protein upon the effects induced by the products was determined by using the human lymphoblastoid line TK6 (p53 wild-type) and its NH32 variant of which the p53 gene was totally inactivated by double homologous recombination (Chuang et al, 1999). The TK6 cells originate from the American Tissue Culture Collection (ATGC, Manassas, Va., USA). The NH32 cells were supplied by H. L. Liber (Chuang et al, 1999).
as §2
as §3, with “France). […]” for “France).”

[3] = test system: MOLT-4; assay: Proliferation test (UptiBlue) on MOLT-4; assay type: cell-based, human; settings: p53 expressing line; read-out: IC50, proliferation of MOLT-4 cells
Procedure: as §1, §2
as §3, with “France). […]” for “France).”

[4] = test system: RDM4 cells; assay: Chemo-radiotherapeutic association on RDM4 cells (cell counting, propidium iodure apoptosis); assay type: cell-based, mouse; settings: for proliferation of non-irradiated RDM4 cells (cell counting): cisplatinum 0.7 μM, ruthenium derivative 10 μM, no irradiation; for proliferation of RDM4 cells, compound plus ionising radiation: 4 Gy rapid neutrons plus compound 11 (10 μM)
Procedure: Cells of this same line are treated with concentrations of 0.7 μM cisplatinum and 15 μM complex 11. 24 hours after the start of the treatment, the cells are irradiated at 4 Gy with rapid neutrons. The effects of the chemo-radiotherapeutic association are then determined by simple cell counting, measuring the concentration of cells in the medium during treatment 24 hrs, 72 hrs and 168 hrs after irradiation.
Evaluation of the effects of a combined “ionising radiation+RDC-11” treatment upon proliferation and survival of the RDM4 murine cells. These cells originate from an AKR mouse lymphoma. The different tests were carried out in vitro, and five independent experiments were carried out.
The radiations used were rapid neutrons originating from the collision of 65 MeV protons on a Beryllium target (produced at the Cyclotron, Louvain la Neuve (LLN) in Belgium). The results of just one of these experiments which is representative of a set of three experiments carried out with this type of radiation are shown.
The RDM4 cells are adjusted to 50,000 cells/ml, in RPMI 1640 culture medium to which 10% foetal calf serum is added. 4 25 cm2 culture flasks are filled with cell suspension, at the rate of 10 ml/flask, i.e. 500,000 cells/flask.
Four flasks are prepared thus, each corresponding to a different experimental group: • Group 1: non-irradiated, untreated cells (Et/NI in FIG. 9) • Group 2: non-irradiated cells, treated with RDC-11 (RDC-11/NI in FIG. 9) • Group 3: irradiated, non-treated cells (Et/4 Gy in FIG. 9) • Group 4: irradiated cells, treated with RDC-11 (RDC-11/4 Gy in FIG. 9)
RDC-11, prepared from an ethanolic solution, is added to the cells (flask 2 and 4) 6 hours before irradiation. An identical volume of ethanol (Et, 66 μl) is added to flasks 1 and 3. The final concentration of RDC-11 is 10 μM, and the medium is not replaced over the 9 days of the experiment.
Flasks 3 and 4 are irradiated with 4 Gy, at ambient temperature, then returned to culture at 37° C.
On the days following irradiation, aliquots of cell suspensions are regularly taken. The number of cells is determined using a Coulter Counter. Other cells are fixed in ethanol, then marked with propidium iodure, in order to determined the percentage apoptosis.

[5] = test system: RDM4 line; assay: Proliferation test (UptiBlue) on RDM4 line; assay type: cell-based, mouse; settings: 72 hours
Procedure: as §1, §2, §3
The potential anti-cancers are first of all selected on the RDM4 line. The effect of the different organo-ruthenium compounds upon the cell viability is firstly determined by a proliferation test as a function of the product concentration. The activity of the compounds derived from Ru is compared to that of cisplatinum. The exposure of the RDM4 cells to these derivatives is translated by a dose-dependent reduction in their proliferation. Therefore, the effect is dependent upon the organic complex which surrounds the Ru nucleus. The inhibition concentration of the growth of 50% of the cells (IC50) is determined for each of the products. […] The ruthenium derivatives showing an excessive IC50 (>50 μM) were eliminated from the biological study.

| Compound | IC50 ([1]; p53-deficient line) [µM] | proliferation of TK6 (p53 wild-type) compared with NH32 (p53-/-) [2] | IC50 [3] [µM] | proliferation of non-irradiated RDM4 cells (cell counting) [4] | growth inhibition, HL-60 compared with MOLT-4 ([1]; p53-deficient HL-60 vs MOLT-4 with normal p53) | IC50 [5] [µM] | proliferation of RDM4 cells, compound plus ionising radiation [4] | proliferation of RDM4 cells, compound plus ionising radiation ([4]; listed as RDC-11) | effect of the combination with irradiation ([4]; RDC-11 10 μM plus 4 Gy) | percentage of cells in apoptosis (propidium iodure), co-treatment ([4]; RDC-11 10 μM plus 4 Gy, three days after start) |
| --- | --- | --- | --- | --- | --- | --- | --- | --- | --- | --- |
| N.N.[Cl][Pt][Cl] [Cisplatinum, reference compound] | 1 | more significant effect upon the p53+/+ cells than upon the p53-deficient cells | < 0.5 | inhibits proliferation more effectively than the ruthenium derivative |  |  |  |  |  |  |
| [Ru(C6H4-2-C5H4N)(phen)(NCMe)2]PF6 [Compound 11] |  | can be superposed |  | negligible | more significant for HL-60s than for MOLT-4s | 11 | cell proliferation practically zero | cell growth is significantly slowed down | supra-additive effect | greater than the sum of treatments taken separately |
